Measured values taken from patent US5434295A (priority 1994, dated 1995).

Key:
Balb/C mice = assay: Lethality of subcutaneous NMDA in mice; format: in vivo; conditions: subcutaneous injection
Experimental: (§1) Bicyclic compounds of the present invention were tested for their ability to block NMDA toxicity in mice. Balb/C mice received NMDA by subcutaneous injection at a dose of 60 mg/kg which was determined to be the LD20 dose of this substance. Thirty minutes prior to injection of the neurotoxin the animals received either (a) an intravenous injection of the test drug formulated in submicronized emulsion as described in Example 11); (b) an intraperitoneal injection of the test drug dissolved in MCT oil; (c) or the appropriate vehicle alone (control groups). The improvement rate afforded by the test drug was defined as the difference between scores of animals receiving the formulated drug and those receiving the vehicle alone. The doses tested for HU-254, HU-259 and HU-260 ranged from 5 to 30 mg/kg.

NMDA toxicity in mice = assay: Prevention of NMDA neurotoxicity in mice (neurological scores); format: in vivo, mice (Balb/C); conditions: for maximum improvement of neurological scores: NMDA 60 mg/kg s.c., i.p. or i.v. pretreatment; for neurological scores/symptoms after NMDA toxicity: pretreated mice
Excerpt: Blockade of NMDA toxicity in mice: Subcutaneous injection of NMDA in mice results in a dose-dependent increase in the number, severity and duration of several neurological symptoms, culminating in death at the higher dose range. The symptoms include tail flicks, circling, tremor and convulsions. The ability of various compounds, when administered to mice prior to NMDA, to reduce the number and severity of these symptoms is a considered a measure of their potency in preventing NMDA behavioral toxicity in vivo.
Test drugs were administered intraperitoneally at the stipulated doses in a solution of MCT oil. Each point represents the mean scores of eight mice treated with the drug compared to the same number of control animals receiving the vehicle alone.
Test compounds were administered at a standard dose of 10 mg/kg either intraperitoneally (in MCT oil) or intravenously (in a submicronized emulsion).
as §1
At least 6-8 mice were included per test group. The materials were tested in a masked study to preclude bias of the observer of clinical symptoms.
The behavioral scoring method (tabulated above) was used as the basic quantitative procedure for evaluating the level of NMDA or kainic acid neurotoxicity in mice. The neurological clinical status of each animal was calculated by totalling the scores of all signs that were evident throughout the study. Duration of symptoms was also taken into account.
If duration of a neurological system is up to 30 seconds, the score is s-1. Duration between 0.5-3.0 mins, the score is s. Duration longer than 3 mins, the score is s+1.

[1] = system: acetylcholine-muscarinic receptor; format: binding, rat; conditions: 100 μM analogue
[2] = system: MK-801 sites located at the NMDA receptor ion channel; assay: Inhibition of [3H]MK-801 binding to rat forebrain membranes
Excerpt: Binding to the NMDA receptor linked channel: Non competitive antagonists of NMDA, the primary example of which is the compound MK-801, bind to a site within the NMDA receptor channel thus preventing the activation of the receptor-channel complex and the consequent neurotoxicity. The ability of various compounds to compete with the binding of tritium labeled MK-801 to brain membranes is considered a measure of their potency as NMDA non-competitive antagonists.
The association of pinene derivatives with acetylcholine-muscarinic receptor and with MK-801 sites located at the NMDA receptor ion channel.
Inhibition of ^3 [H]MK-801 binding to rat forebrain membranes by the test HU-211 compounds was carried out as described for HU-211 in Eshhar et al., NeuroReport 5, No. 3, 1993) (Methods section). The test compounds were solubilized in a mixture of ethanol:Emulfor:water (20:3:57).

cannabinoid receptors = conditions: Devane et al. 1992; cited from earlier work
[3] = system: rat brain cortical membrane preparations; conditions: cited from earlier work
[4] = system: intraocular pressure (IOP); conditions: in vivo; cited from earlier work
GABA receptors = assay: Effect on GABA responses in oocytes; format: biochemical, rat
[5] = system: closed head injury, a model of head trauma; conditions: Shohami et al. 1993; cited from earlier work
[6] = system: intraocular pressure (IOP); assay: Ocular hypotensive activity (intraocular pressure) in albino rabbits; format: in vivo, albino rabbit; conditions: for Max ΔIOP: ** drug vs. vehicle P < 0.01
Experimental: Bicyclic compounds of the present invention were also tested for IOP lowering effects.
Sci., 82, 1069-1079 (1993).
The phospholipids and HU-259 were dissolved in the stabilized oily phase. The other excipients were dissolved in the aqueous phase. Both phases were heated separately to 70° C. and dispersed by a magnetic stirrer. Emulsification was completed using a "high speed mixer" for 5 min at 85° C. The resulting emulsion was cooled rapidly below 20° C. and homogenized using a two-stage homogenizing valve assembly (Gaulin Homogenizer, APV Gaulin, Hilversum, The Netherlands) for 5 min. All the manufacturing procedures were carried out under aseptic conditions and a nitrogen atmosphere. The pH was adjusted to 7.4 using a sodium hydroxide solution (10%). The final fine emulsion was filtered to achieve sterility and stored in ampoules. A typical formulation (%, w/w) consisted of the following: HU-259, 0.2%; oily phase, 20.0%; purified fractionated egg phospholipids, 1.2%; nonionic emulsifier, 2%; glycerin, 2.25%; α-tocopherol, 0.02%; methyl and butyl p-hydroxy- benzoic ester, 0.3 and 0.075%, respectively; and water for injection, to 100.0 g. The control emulsion vehicle was prepared using identical experimental conditions but without drug.
IOP was measured by using a pneumatonometer (Digilab T30). Pressure readings were calibrated for verification every 6 h. One drop (50 μl) of local anesthetic (Benoxinate HCl, 0.4% Fischer [Isr] diluted 1:3 with sterile saline) was instilled into each eye prior to IOP measurements.

Rat brain NMDA receptors = assay: Blockade of NMDA response in Xenopus oocytes injected with rat brain RNA; format: biochemical
Excerpt: Blockade of NMDA-induced voltage changes in Xenopus oocytes: Frog oocytes can be injected with genetic material from various species and organs, resulting in the expression of the various molecules encoded by this material in the oocyte. Injection of rat brain RNA provides active NMDA receptors on the ooctye surface. Application of NMDA results in changes in the electrical activity recorded from the oocytes. Various NMDA antagonists block the NMDA-induced changes in electrical activity and their potency and dose dependence in this system indicate their potency and mode of action as NMDA antagonists.
The oocyte is the most widely used system for studying the molecular, biophysical and pharmacological properties of expressed voltage- or transmitter-operated ion channels. This giant cell offers several advantages for this type of studies. It can be readily used for two-electrode voltage clamp studies, translates injected mRNA from different sources and functionally expresses the translated proteins, and it is also readily amenable for intracellular micron injections. Importantly, the recordings of neurotransmitter- or voltage-induced currents in a single oocyte are extremely stable and can performed repeatedly for 2-3 hours; this allows the performance of a full dose-response relation in single oocytes.
Rat brain NMDA receptors were expressed in Xenopus oocytes injected with total rat brain RNA. Dascal and Lotan. The conditions for injection culture and electrical recording from oocytes were as described by Dascal and Lotan (in: Methods in Molecular Biology, Longstaff and Revest, eds. Vol. 13, Chapter 13, Humana Press, N.J., 1992).
Briefly, female Xenopus were anesthetized by immersion in water containing 0.15% tricaine methanesulfonate and a small incision was made in the lower abdomen. Ovary fragments were removed into ND-96.
The oocytes were defolliculated by the collagenase treatment in order to remove the follicle cell layer. Defolliculated oocytes were injected with total rat brain RNA and incubated for 2-4 days at 22° C. in sterile NDE-96 solution. ND-96 solution contains (in mM): NaCl - 96, KCl - 2, CaCl2 - 1.8, Hepes - 5 (pH=7.4-7.6). NDE-96 contains in addition, 2.5 mM sodium pyruvate, 100 unit/ml penicillin, 100 μg/ml streptomycin. A single oocyte was placed in a 1 ml bath constantly superfused with ND-96 solution at room temperature. The cell was impaled with two microelectrodes and held at membrane potential of -60 mV using voltage clamp circuit.
RNA was extracted from the brain of 14-day old rat brain. Each oocyte was injected with 50 nl total RNA (4-8 mg/ml in water, stored at -80° C. in […] aliquots).
NMDA receptors were activated by application of NMDA with glycine in Mg-free ND-96 solution. It was shown previously and also observed in this study that the entry of calcium ions through the NMDA receptor-channel evokes a Ca-dependent Cl^- current which appeared as an early inward current peak preceding and overlapping the actual NMDA response and hindering a quantitative pharmacological study of NMDA antagonists. Experimental conditions were therefore worked out aimed at eliminating the Cl^- current. The best protocol employed the use of Ca-free, Ba-containing solution, avoiding repetitive application of antagonists, as well as other conditions including optimal perfusion rate and optimal intervals between repetitive NMDA applications.
Several NMDA receptor blockers were tested. These compounds have […] and have to be dissolved in 100% dimethyl sulfoxide (DMSO) and diluted for use in ND-96 that contained 1% DMSO. Therefore, the effect of 1% DMSO on the response to 10^-4 M NMDA and 5×10^-6 M glycine was examined. DMSO had no effect on NMDA response in three different cells.
Eight putative NMDA antagonists of the HU group, including 270, 271 and 259 were tested for anti-NMDA activity at a glutamate receptor. […]

[7] = system: CA1 hippocampal region in gerbils; conditions: injected after the ischemic insult; Bar-Joseph et al. 1993; cited from earlier work
[8] = system: NMDA-induced tremor, seizures and lethality in mice; conditions: Feigenbaum et al. 1989; cited from earlier work
[9] = system: NMDA receptor linked ion channel; conditions: Nadler et al. 1993; cited from earlier work
AMPA/kainate receptors = assay: Effect on kainate responses in oocytes; format: biochemical, rat
cannabimimetic activity = conditions: cited from earlier work
[10] = system: voltage-dependent P-type calcium channels; assay: Inhibition of voltage-dependent P-type calcium channels expressed in oocytes; format: biochemical, rat

Q: With `CN[C@H](CC(=O)O)C(=O)O` [NMDA, N-methyl-D-aspartate] as the compound, how does the LD20 dose (Balb/C mice) read?
A: 60 mg/kg

Q: For `CCCCCCC(C)(C)c1cc(OC(C)=O)c([C@H]2C=C(COC(C)=O)[C@H]3C[C@@H]2C3(C)C)c(OC(C)=O)c1` [HU-254], which “maximum improvement of neurological scores” value (NMDA toxicity in mice) is on record?
A: 30-40%

Q: And the “maximum improvement rate on the neurological scores” value (NMDA toxicity in mice; i.p. dose of 20 mg/kg)?
A: 25%

Q: And the “effect of route of administration on performance” value (NMDA toxicity in mice; i.v. vs i.p.)?
A: significantly enhanced by i.v. administration

Q: What about the “neurological scores/symptoms after NMDA toxicity” value (NMDA toxicity in mice) of the same compound?
A: improvement in neurological scores

Q: And the “% inhibition of tritiated ligand binding to membranes, 3[H]QNB” value [1]?
A: 96.1%

Q: And the “% inhibition of tritiated ligand binding to membranes, 3[H]-MK-801” value ([2]; 100 μM analogue)?
A: 5.3%

Q: Which “affinity to the cannabinoid receptors” value (cannabinoid receptors) does the source give for `CCCCCCC(C)(C)c1cc(O)c2c(c1)OC(C)(C)[C@H]1CC=C(CO)C[C@H]21` [HU-211, 7-hydroxy-Δ^6-tetrahydrocannabinol 1,1-dimethylheptyl, reference compound] here?
A: very low affinity

Q: What about the “increase in binding of [3H]TCP induced by polyamines, glutamate or glycine” value [3] of the same compound?
A: blocked the increase in binding

Q: And the “lowering of intraocular pressure” value [4]?
A: lowering of intraocular pressure (IOP)

Q: What about the “effect on GABA responses” value (GABA receptors) of the same compound?
A: no effect

Q: And the “extent of edema formation and overall neurological damage” value [5]?
A: significantly reduced

Q: What about the “AUC (from instillation of treatment until return to baseline IOP)” value ([6]; contralateral eye) of the same compound?
A: -4.9 ± 7.0 mmHg × hrs

Q: What about the “Max ΔIOP” value ([6]; contralateral eye) of the same compound?
A: -2.0 ± 1.1 mmHg

Q: What about the “AUC (from instillation of treatment until return to baseline IOP)” value ([6]; treated eye) of the same compound?
A: -9.5 ± 6.0 mmHg × hrs

Q: And the “Max ΔIOP” value ([6]; treated eye, single dose 0.2% emulsion)?
A: -2.9 ± 0.7 mmHg

Q: What about the “% inhibition of NMDA” value (Rat brain NMDA receptors; 1 μM) of the same compound?
A: 32%

Q: And the “% inhibition of NMDA” value (Rat brain NMDA receptors; 10 μM)?
A: 47%

Q: And the “mode of NMDA antagonism” value (Rat brain NMDA receptors; Lineweaver-Burke analysis)?
A: non-competitive NMDA antagonists

Q: And the “concentration at which inhibitory activity was first apparent” value (Rat brain NMDA receptors; NMDA response)?
A: 10 nM

Q: And the “neuronal cell damage in CA1 hippocampal region” value [7]?
A: prevent neuronal cell damage

Q: And the “block of NMDA-induced tremor, seizures and lethality” value [8]?
A: block NMDA-induced tremor, seizures and lethality in mice

Q: What about the Ki ([2]; [3H]MK801 binding, rat forebrain membranes, representative experiment in triplicate (HU259), read-out: inhibition constant (K1)) of the same compound?
A: 11.3 µM

Q: What about the “NMDA induced uptake of 45Ca++ ions” value [9] of the same compound?
A: block the NMDA induced uptake

Q: And the “effect on kainate responses” value (AMPA/kainate receptors)?
A: no effect

Q: What about the cannabimimetic activity (cannabimimetic activity) of the same compound?
A: inactive as a cannabimimetic

Q: And the “inhibition of activity of voltage-dependent P-type calcium channels” value [10]?
A: did not inhibit

Q: Which results are given for `CCCCCCC(C)(C)c1cc(O)c2c(c1)OC(C)(C)[C@@H]1CC=C(CO)C[C@@H]21` [HU-210, 1,1 dimethylheptyl (DMH) homolog of [3R,4R]-7-hydroxy Δ^6 THC, reference compound]?
A: % inhibition of NMDA (Rat brain NMDA receptors; 10 μM): 0%; inhibitory effects on NMDA response (Rat brain NMDA receptors; concentrations up to 10 μM): did not have any inhibitory effects; cannabimimetic activity (cannabimimetic activity): two orders of magnitude higher than the natural Δ^1 THC

Q: With `COc1ccc(C(=O)c2c(C)n(CCN3CCOCC3)c3ccccc23)cc1` [pravadoline] as the compound, how does the cannabimimetic activity (cannabimimetic activity) read?
A: found to produce cannabimimetic effects

Q: For `CCCCCCC(C)(C)c1cc(OC(C)=O)c([C@H]2C=C(CO)[C@H]3C[C@@H]2C3(C)C)c(OC(C)=O)c1` [HU-260], which “maximum improvement of neurological scores” value (NMDA toxicity in mice) is on record?
A: 30-40%

Q: What about the “neurological scores/symptoms after NMDA toxicity” value (NMDA toxicity in mice) of the same compound?
A: improvement in neurological scores

Q: Which cannabimimetic activity (cannabimimetic activity) does the source give for `CCCCCCC(C)(C)c1ccc([C@@H]2C[C@H](O)CC[C@H]2CCCO)c(O)c1` [CP-55940] here?
A: found to produce cannabimimetic effects
